Assay results from patent US9693556B2, “Herbicidal pyridazinone derivatives” (SYNGENTA LIMITED, priority 2011, dated 2017).

Columns and labels:
Assay type in all cases: in vivo
Setaria faberi (SETFA) [1] = test: Post-emergence herbicidal glasshouse test on Setaria faberi; settings: post-emergence, 1000 g/h, evaluated after 13 days; for herbicidal damage, POST Application SETFA: five point scale
Method in brief: (§1)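 Application rate 1000 g/h, formulated in acetone/water (50:50) with 0.5% Tween 20 and sprayed onto pots sown 1 day (pre-emergence) or 8 days (post-emergence) earlier. Evaluation at 13 days rated damage from 1 (0-19%) to 5 (80-100%).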

[2] = test system: Amaranthus retoflexus (AMARE); test: Pre-emergence herbicidal glasshouse test on Amaranthus retoflexus; settings: pre-emergence, 1000 g/h, evaluated after 13 days; for herbicidal damage, PRE Application AMARE: five point scale
Method in brief: as §1

[3] = test system: Ipomoea hederacea (IPOHE); test: Post-emergence herbicidal glasshouse test on Ipomoea hederacea; settings: post-emergence, 1000 g/h, evaluated after 13 days; for herbicidal damage, POST Application IPOHE: five point scale
Method in brief: as §1

Setaria faberi (SETFA) [4] = test: Pre-emergence herbicidal glasshouse test on Setaria faberi; settings: pre-emergence, 1000 g/h, evaluated after 13 days; for herbicidal damage, PRE Application SETFA: five point scale
Method in brief: as §1

[5] = test system: Alopecurus myosuroides (ALOMY); test: Pre-emergence herbicidal glasshouse test on Alopecurus myosuroides; settings: pre-emergence, 1000 g/h, evaluated after 13 days; for herbicidal damage, PRE Application ALOMY: five point scale
Method in brief: as §1

[6] = test system: Amaranthus retoflexus (AMARE); test: Post-emergence herbicidal glasshouse test on Amaranthus retoflexus; settings: post-emergence, 1000 g/h, evaluated after 13 days; for herbicidal damage, POST Application AMARE: five point scale
Method in brief: as §1

[7] = test system: Echinochloa crus-galli (ECHCG); test: Post-emergence herbicidal glasshouse test on Echinochloa crus-galli; settings: post-emergence, 1000 g/h, evaluated after 13 days; for herbicidal damage, POST Application ECHCG: five point scale
Method in brief: as §1

Solanum nigrum (SOLNI) [8] = test: Pre-emergence herbicidal glasshouse test on Solanum nigrum; settings: pre-emergence, 1000 g/h, evaluated after 13 days; for herbicidal damage, PRE Application SOLNI: five point scale
Method in brief: as §1

[9] = test system: Echinochloa crus-galli (ECHCG); test: Pre-emergence herbicidal glasshouse test on Echinochloa crus-galli; settings: pre-emergence, 1000 g/h, evaluated after 13 days; for herbicidal damage, PRE Application ECHCG: five point scale
Method in brief: as §1

[10] = test system: Alopecurus myosuroides (ALOMY); test: Post-emergence herbicidal glasshouse test on Alopecurus myosuroides; settings: post-emergence, 1000 g/h, evaluated after 13 days; for herbicidal damage, POST Application ALOMY: five point scale
Method in brief: as §1

Solanum nigrum (SOLNI) [11] = test: Post-emergence herbicidal glasshouse test on Solanum nigrum; settings: post-emergence, 1000 g/h, evaluated after 13 days; for herbicidal damage, POST Application SOLNI: five point scale
Method in brief: as §1

[12] = test system: Ipomoea hederacea (IPOHE); test: Pre-emergence herbicidal glasshouse test on Ipomoea hederacea; settings: pre-emergence, 1000 g/h, evaluated after 13 days; for herbicidal damage, PRE Application IPOHE: five point scale
Method in brief: as §1

Structure (SMILES) | herbicidal damage, POST Application SETFA (Setaria faberi (SETFA) [1]) | herbicidal damage, PRE Application AMARE [2] | herbicidal damage, POST Application IPOHE [3] | herbicidal damage, PRE Application SETFA (Setaria faberi (SETFA) [4]) | herbicidal damage, PRE Application ALOMY [5] | herbicidal damage, POST Application AMARE [6] | herbicidal damage, POST Application ECHCG [7] | herbicidal damage, PRE Application SOLNI (Solanum nigrum (SOLNI) [8]) | POST Application SETFA herbicidal damage (five point scale) (Setaria faberi (SETFA) [1]) | PRE Application AMARE herbicidal damage (five point scale) [2] | POST Application IPOHE herbicidal damage (five point scale) [3] | PRE Application SETFA herbicidal damage (five point scale) (Setaria faberi (SETFA) [4]) | PRE Application ALOMY herbicidal damage (five point scale) [5] | POST Application AMARE herbicidal damage (five point scale) [6] | POST Application ECHCG herbicidal damage (five point scale) [7] | PRE Application SOLNI herbicidal damage (five point scale) (Solanum nigrum (SOLNI) [8]) | PRE Application ECHCG herbicidal damage (five point scale) [9] | POST Application ALOMY herbicidal damage (five point scale) [10] | POST Application SOLNI herbicidal damage (five point scale) (Solanum nigrum (SOLNI) [11]) | PRE Application IPOHE herbicidal damage (five point scale) [12] | also measured
Cn1ncc(-c2cccn(-c3cccc(C(F)(F)F)c3)c2=O)c(O)c1=O [Compound 1.152] | 1 (1=0-19% damage) | 2 (2=20-39% damage) | 2 (2=20-39% damage) | 5 (5=80-100% damage) | 4 (4=60-79% damage) | 1 (1=0-19% damage) | 1 (1=0-19% damage) | 2 (2=20-39% damage) | – | – | – | – | – | – | – | – | – | – | – | – | herbicidal damage, PRE Application ECHCG [9]: 2 (2=20-39% damage); herbicidal damage, POST Application ALOMY [10]: 1 (1=0-19% damage); herbicidal damage, POST Application SOLNI (Solanum nigrum (SOLNI) [11]): 1 (1=0-19% damage); herbicidal damage, PRE Application IPOHE [12]: 1 (1=0-19% damage)
C#CCn1ncc(-c2ccc(S(C)(=O)=O)c(C3=NOCC3)c2C)c(O)c1=O [Compound 1.163] | 5 (5=80-100% damage) | 5 (5=80-100% damage) | 5 (5=80-100% damage) | 5 (5=80-100% damage) | 5 (5=80-100% damage) | 5 (5=80-100% damage) | 5 (5=80-100% damage) | 5 (5=80-100% damage) | – | – | – | – | – | – | – | – | – | – | – | – | herbicidal damage, PRE Application ECHCG [9]: 5 (5=80-100% damage); herbicidal damage, POST Application ALOMY [10]: 5 (5=80-100% damage); herbicidal damage, POST Application SOLNI (Solanum nigrum (SOLNI) [11]): 5 (5=80-100% damage); herbicidal damage, PRE Application IPOHE [12]: 4 (4=60-79% damage)
CS(=O)(=O)c1ccc(-c2cn[nH]c(=O)c2O)c(Cl)c1C1=NOCC1 [Compound 2.055] | – | – | – | – | – | – | – | – | 5 (5=80-100% damage) | 4 (4=60-79% damage) | 3 (3=40-59% damage) | 1 (1=0-19% damage) | 2 (2=20-39% damage) | 5 (5=80-100% damage) | 5 (5=80-100% damage) | 2 (2=20-39% damage) | 2 (2=20-39% damage) | 3 (3=40-59% damage) | 5 (5=80-100% damage) | 1 (1=0-19% damage) | –
Cn1ncc(-c2ccc([N+](=O)[O-])cc2S(C)(=O)=O)c(O)c1=O [Compound 2.032] | – | – | – | – | – | – | – | – | 4 (4=60-79% damage) | 5 (5=80-100% damage) | 5 (5=80-100% damage) | 2 (2=20-39% damage) | 2 (2=20-39% damage) | 5 (5=80-100% damage) | 5 (5=80-100% damage) | 5 (5=80-100% damage) | 5 (5=80-100% damage) | 3 (3=40-59% damage) | 5 (5=80-100% damage) | 3 (3=40-59% damage) | –
COCCOCc1nc(C(F)(F)F)ccc1-c1cnn(C)c(=O)c1O [Compound 1.072] | – | – | – | – | – | – | – | – | 5 (5=80-100% damage) | 5 (5=80-100% damage) | 5 (5=80-100% damage) | 5 (5=80-100% damage) | 4 (4=60-79% damage) | 5 (5=80-100% damage) | 5 (5=80-100% damage) | 5 (5=80-100% damage) | 5 (5=80-100% damage) | 4 (4=60-79% damage) | 5 (5=80-100% damage) | 5 (5=80-100% damage) | –
COc1ccc(-c2cnn(C)c(=O)c2O)c(OC)n1 [Compound 1.153] | 1 (1=0-19% damage) | 2 (2=20-39% damage) | 2 (2=20-39% damage) | 1 (1=0-19% damage) | 1 (1=0-19% damage) | 2 (2=20-39% damage) | 1 (1=0-19% damage) | 2 (2=20-39% damage) | – | – | – | – | – | – | – | – | – | – | – | – | herbicidal damage, PRE Application ECHCG [9]: 2 (2=20-39% damage); herbicidal damage, POST Application ALOMY [10]: 1 (1=0-19% damage); herbicidal damage, POST Application SOLNI (Solanum nigrum (SOLNI) [11]): 4 (4=60-79% damage); herbicidal damage, PRE Application IPOHE [12]: 3 (3=40-59% damage)
Cn1ncc(-n2ccc(C(F)(F)F)c(-c3ccccc3Cl)c2=O)c(O)c1=O [Compound 1.159] | 5 (5=80-100% damage) | 5 (5=80-100% damage) | 5 (5=80-100% damage) | 5 (5=80-100% damage) | 5 (5=80-100% damage) | 5 (5=80-100% damage) | 5 (5=80-100% damage) | 5 (5=80-100% damage) | – | – | – | – | – | – | – | – | – | – | – | – | herbicidal damage, PRE Application ECHCG [9]: 5 (5=80-100% damage); herbicidal damage, POST Application ALOMY [10]: 4 (4=60-79% damage); herbicidal damage, POST Application SOLNI (Solanum nigrum (SOLNI) [11]): 5 (5=80-100% damage); herbicidal damage, PRE Application IPOHE [12]: 1 (1=0-19% damage)
CC[S+]([O-])c1ccccc1-c1cnn(COC)c(=O)c1O (stereo not drawn) [Compound 2.003] | – | – | – | – | – | – | – | – | 4 (4=60-79% damage) | 5 (5=80-100% damage) | 4 (4=60-79% damage) | 4 (4=60-79% damage) | 3 (3=40-59% damage) | 5 (5=80-100% damage) | 5 (5=80-100% damage) | 1 (1=0-19% damage) | 4 (4=60-79% damage) | 3 (3=40-59% damage) | 5 (5=80-100% damage) | 1 (1=0-19% damage) | –
Cn1ncc(-c2ccc(F)cc2C(F)(F)F)c(O)c1=O [Compound 1.112] | – | – | – | – | – | – | – | – | 1 (1=0-19% damage) | 1 (1=0-19% damage) | 4 (4=60-79% damage) | 1 (1=0-19% damage) | 1 (1=0-19% damage) | 5 (5=80-100% damage) | 1 (1=0-19% damage) | 1 (1=0-19% damage) | 1 (1=0-19% damage) | 1 (1=0-19% damage) | 4 (4=60-79% damage) | 1 (1=0-19% damage) | –
